From patent US20100280050A1, “Piperidinylamino-Thieno[2,3-D] Pyrimidine Compounds for Treating Fibrosis” (priority 2007, published 2010)
pEC50, pIC50, pKi: −log10 of the molar value.

Columns and labels:
σ1 receptor = σ1 receptor (Homo sapiens, UniProt Q99720); experiment: σ1 receptor binding; conditions: moderate binding
[1] = tested on: human activated hepatic myofibroblasts (primary activated hepatic stellate cells); experiment: apoptosis of human activated hepatic myofibroblasts; assay type: cell-based; conditions: overnight incubation
Procedure: Compound A was tested on human activated hepatic myofibroblasts. The tested human cells were primary activated hepatic stellate cells isolated from normal human liver resected during removal of adjacent tumour tissue in patients with primary liver cancer. The cells were then cultured on plastic in full media and passaged at least 4 times to generate pure activated activated hepatic stellate cells, representing the major fibrogenic cell of the liver.

dopamine D3 receptor = dopamine D3 receptor (Homo sapiens, UniProt P35462); experiment: dopamine D3 receptor affinity; assay type: binding; conditions: moderate activity
[2] = biological target: more than 51 receptors including GPCRs, ion channels and receptor tyrosine kinases; experiment: panel of more than 51 receptors; assay type: binding; conditions: almost no affinity, read-out: Ki, more than 51 receptors tested
σ2 receptor = σ2 receptor (Homo sapiens, UniProt Q5BJF2); experiment: σ2 receptor binding; conditions: moderate binding
[3] = tested on: lung lesions induced by monocrotaline (MCT); experiment: monocrotaline (MCT) model, lung lesion scoring; assay type: in vivo
Procedure: (§1) Compound A was assayed for effects on lung and liver lesions, as well as liver fibrosis in animals suffering from liver fibrosis induced by monocrotaline (MCT).
(§2) General Procedure: In this assay, animals were treated with MCT/vehicle, MCT with phosphate-buffered saline (PBS), or MCT with compound A. Following treatment, animals were sacrificed, and lung tissue was perfused and fixed in 10% neutral buffered formalin via the trachea. Lung and liver tissue was removed, sectioned and stained with hematoxylin-eosin. 41 liver and 41 lung slides were obtained for histologic evaluation. All slides were scored blindly without knowledge of experimental conditions. Lung and liver slides were evaluated according to the criteria listed below. Each parameter was subjectively evaluated and scored from 0-5, with 0 being no discernable lesions and 5 indicating the most severe lesions. Final scores for both the liver and lung lesions were calculated by averaging all parameters for each individual tissue.
• 1. Alveolar edema • 2. Congestion • 3. Intra-alveolar hemorrhage • 4. Alveolar macrophage infiltrate • 5. Degree of erythrophagocytosis • 6. Degree of hemosiderosis • 7. Thickening of alveolar septa • 8. Type II pneumocyte hyperplasia • 9. General arterial thickening • 10. Thickening of tunica intima • 11. Thickening of tunica media • 12. Thickening of tunica adventitia • 13. Degree of perivascular edema. • 14. Perivascular inflammatory cells (lymphs and plasma cells) • 15. Increased BALT • 16. Endothelial reactivity and prominence.

[4] = tested on: rat activated hepatic myofibroblasts; experiment: acridine orange assay for morphological assessment of apoptosis; assay type: cell-based; conditions: 1 μM dose
Procedure: The compound 5-((4-(6-chlorothieno[2,3-d]pyrimidin-4-ylamino)piperidin-1-yl)methyl)-2-fluorobenzonitrile (hereinafter “compound A”), was evaluated for activity in promoting apoptosis of rodent and human activated hepatic myofibroblasts. The activity of compound A was compared against untreated cells, cells treated with dimethylsulfoxide, and cells treated with spiperone. Spiperone is a nonselective 5-HT2B antagonist. In the acridine orange assay for morphological assessment of apoptosis, compound A dose-dependently promotes elevated rates of apoptosis of rat activated hepatic myofibroblasts (40% of cells apoptotic with 1 μM dose). The results of the acridine orange assay are depicted in FIGS. 1-4.

[5] = tested on: liver lesions induced by monocrotaline (MCT); experiment: monocrotaline (MCT) model, liver lesion scoring; assay type: in vivo; conditions: for liver lesion severity score compared to Vehicle+PBS control: p<0.05
Procedure: as §1, §2
(§3) • 1. Capsular fibrin • 2. Interlobular fibrosis • 3. Zone 1, 2, 3 necrosis • 4. Central vein, portal vein necrosis • 5. Sinusoidal spaces (hepatocytes dropout) • 6. Spaces of Disse • 7. Bile duct • 8. Bile caniliculi • 9. Kupffer cells • 10. Hepatocyte appositional surfaces • 11. Cell and nuclear size variation • 12. Cytoplasm variation

σ receptors = experiment: σ receptor functional assays (agonist activity); assay type: biochemical; conditions: very weak agonist
[6] = tested on: liver fibrosis induced by monocrotaline (MCT); experiment: monocrotaline (MCT) model, hepatic fibrosis analysis; assay type: in vivo
Procedure: as §1, §2, §3
There were varying degrees of myofibroblast proliferation and collagen deposition surrounding portal tracts with occasional bridging into zones two and three. Bile duct proliferation was occasionally associated with areas of fibrosis.

dopamine D5 receptor = dopamine D5 receptor (Homo sapiens, UniProt P21918); experiment: dopamine D5 receptor activity; assay type: binding; conditions: no activity
[7] = tested on: Caspase 3/7 activity in rat activated hepatic stellate cells; experiment: Caspase-Glo 3/7 assay in rHSC; assay type: cell-based; conditions: FIG. 7
Procedure: Compound A was evaluated for activity in inducing Caspase 3/7 activity. Caspase 3 is involved in regulating apoptosis, and increases in Caspase 3 activity in this assay correlate to increased levels of apoptosis.
General Procedure: The assay was performed based on the following protocol: • 1. Passage rHSC at an appropriate density on a 96 well format and allow to adhere overnight. • 2. Treat cells with inhibitors for an appropriate length of time including the relevant controls. • 3. Allow both buffer and substrate to reach room temperature. • 4. Immediately prior to use, resuspend the substrate in 2.5 mL of buffer and mix thoroughly. • 5. Remove cells from incubator and allow the plates to cool to room temperature. • 6. Add Caspase-Glo® reagent at a 1:1 ratio (i.e. 100 μL to 100 μL media) and shake at 300 rpm for 30 sec. • 7. Incubate cells with Caspase-Glo® reagent for 2 h at room temperature protected from light. • 8. Transfer all media to white walled luciferase plates and determined luminescence using the MicroBeta luminometer. • 9. Caspase activity is expressed as fold-change relative to the untreated control.
Caspase-Glo® 3/7 reagent is available from Promega (Calif., USA). The Caspase-Glo® reagent contains a DEVD-caspase substrate which is selectively cleaved by caspase enzymes 3 and 7. […]

dopamine D2 receptor = dopamine D2 receptor (Homo sapiens, UniProt P14416); experiment: dopamine D2 receptor antagonism; assay type: biochemical; conditions: weak antagonist
[8] = tested on: all other 5-HT receptor subtypes; experiment: affinity for the other 5-HT receptor subtypes; assay type: binding; conditions: 5-HT2B versus all other 5-HT subtypes, except 5-HT1A
dopamine D1 receptor = dopamine D1 receptor (Homo sapiens, UniProt P21728); experiment: dopamine D1 receptor activity; assay type: binding; conditions: no activity
Chain of dopamine D1 receptor (P21728 whole entry): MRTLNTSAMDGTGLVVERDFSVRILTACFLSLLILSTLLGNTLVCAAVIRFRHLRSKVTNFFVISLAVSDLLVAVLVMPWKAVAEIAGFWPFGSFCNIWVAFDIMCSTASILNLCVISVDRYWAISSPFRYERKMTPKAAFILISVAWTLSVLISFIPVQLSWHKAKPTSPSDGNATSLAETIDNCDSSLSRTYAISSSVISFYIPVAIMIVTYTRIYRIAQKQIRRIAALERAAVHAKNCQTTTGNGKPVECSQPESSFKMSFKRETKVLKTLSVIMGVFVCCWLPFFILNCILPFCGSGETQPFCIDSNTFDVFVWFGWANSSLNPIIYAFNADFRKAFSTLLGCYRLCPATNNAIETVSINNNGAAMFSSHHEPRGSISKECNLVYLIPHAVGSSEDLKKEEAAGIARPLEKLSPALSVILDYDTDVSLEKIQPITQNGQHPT

Chain of σ2 receptor (Q5BJF2 whole entry): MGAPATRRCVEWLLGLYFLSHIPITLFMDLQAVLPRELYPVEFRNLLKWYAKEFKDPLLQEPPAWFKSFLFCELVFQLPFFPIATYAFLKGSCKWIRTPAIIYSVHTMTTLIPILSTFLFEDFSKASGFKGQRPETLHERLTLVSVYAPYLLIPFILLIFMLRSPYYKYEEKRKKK
Chain of dopamine D5 receptor (P21918 whole entry): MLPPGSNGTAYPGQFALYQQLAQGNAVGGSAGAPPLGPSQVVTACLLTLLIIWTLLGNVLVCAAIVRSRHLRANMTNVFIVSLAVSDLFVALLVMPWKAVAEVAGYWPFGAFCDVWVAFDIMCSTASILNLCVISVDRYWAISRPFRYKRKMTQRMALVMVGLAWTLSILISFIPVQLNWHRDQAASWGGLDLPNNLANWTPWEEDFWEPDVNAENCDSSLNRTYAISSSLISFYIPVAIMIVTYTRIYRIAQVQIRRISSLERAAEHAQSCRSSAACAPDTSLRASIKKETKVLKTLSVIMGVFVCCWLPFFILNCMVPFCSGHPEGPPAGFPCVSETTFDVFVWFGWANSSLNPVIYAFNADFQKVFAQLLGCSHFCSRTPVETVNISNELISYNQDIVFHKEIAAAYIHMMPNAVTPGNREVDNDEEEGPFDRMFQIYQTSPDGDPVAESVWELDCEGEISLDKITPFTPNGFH
Chain of dopamine D3 receptor (P35462 whole entry, species assumed): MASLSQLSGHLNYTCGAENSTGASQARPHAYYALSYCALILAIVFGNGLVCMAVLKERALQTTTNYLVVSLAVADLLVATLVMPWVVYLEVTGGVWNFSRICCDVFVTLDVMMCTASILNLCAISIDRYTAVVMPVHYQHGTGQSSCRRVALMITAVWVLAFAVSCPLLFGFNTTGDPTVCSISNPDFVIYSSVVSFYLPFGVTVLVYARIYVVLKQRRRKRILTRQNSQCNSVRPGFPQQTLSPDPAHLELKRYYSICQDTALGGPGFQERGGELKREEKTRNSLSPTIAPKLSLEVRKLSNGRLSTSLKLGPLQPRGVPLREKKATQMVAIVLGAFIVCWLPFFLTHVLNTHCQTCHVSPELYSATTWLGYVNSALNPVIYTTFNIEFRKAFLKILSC
Chain of dopamine D2 receptor (P14416 whole entry, species assumed): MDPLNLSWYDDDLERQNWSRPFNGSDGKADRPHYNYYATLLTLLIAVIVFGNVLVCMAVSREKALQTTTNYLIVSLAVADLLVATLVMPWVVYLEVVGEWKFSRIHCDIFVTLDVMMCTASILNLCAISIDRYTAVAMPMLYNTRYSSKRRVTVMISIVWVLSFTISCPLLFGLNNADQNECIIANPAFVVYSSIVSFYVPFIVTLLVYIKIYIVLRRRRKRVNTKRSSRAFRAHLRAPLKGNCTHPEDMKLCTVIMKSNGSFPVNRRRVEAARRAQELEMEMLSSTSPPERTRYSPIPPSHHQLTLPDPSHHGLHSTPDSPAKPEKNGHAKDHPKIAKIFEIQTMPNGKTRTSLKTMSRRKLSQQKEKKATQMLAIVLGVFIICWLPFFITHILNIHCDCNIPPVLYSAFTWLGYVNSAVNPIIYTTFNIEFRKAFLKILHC
Chain of σ1 receptor (Q99720 whole entry): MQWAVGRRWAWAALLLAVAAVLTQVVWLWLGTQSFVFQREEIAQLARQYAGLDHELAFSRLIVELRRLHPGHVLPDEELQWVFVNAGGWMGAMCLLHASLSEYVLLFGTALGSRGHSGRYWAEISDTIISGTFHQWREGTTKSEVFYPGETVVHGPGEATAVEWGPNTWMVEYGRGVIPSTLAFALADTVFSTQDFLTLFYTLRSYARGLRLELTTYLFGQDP

N#Cc1cc(CN2CCC(Nc3ncnc4sc(Cl)cc34)CC2)ccc1F [compound A, 5-((4-(6-Chlorothieno[2,3-d]pyrimidin-4-ylamino)piperidin-1-yl)methyl)-2-fluorobenzonitrile]
pKi (σ1 receptor): 7.00
apoptosis ([1]; 1 μM): 20%
apoptosis ([1]; 100 μM): 60%
pKi (dopamine D3 receptor): ~6.51
pKi [2]: < 6.00
pKi (σ2 receptor): 6.96
lung lesion score versus Vehicle+MCT group ([3]; 50 mg/kg + MCT, p=0.09): lower lesion score
lung lesion score versus Vehicle+MCT group ([3]; 100 mg/kg + MCT, p<0.01, similar to Vehicle+PBS group): reduced in severity
MCT-induced pulmonary lesion, histology (FIG. 11) ([3]; MCT + 50 mg/kg, Part B): improvement of MCT-induced pulmonary lesion
MCT-induced pulmonary lesions, histology (FIG. 11) ([3]; MCT + 100 mg/kg, Part C, compared to Part B): further reduction of MCT-induced pulmonary lesions
cells apoptotic [4]: 40%
liver lesion severity score compared to Vehicle+PBS control ([5]; 50 mg/kg + MCT): significant increase
liver lesion severity score compared to Vehicle+PBS control ([5]; 100 mg/kg + MCT): significant increase
periportal necrosis, histology (FIG. 11) ([5]; MCT + 50 mg/kg, Part B compared to Part A (vehicle + MCT)): slightly reduced
periportal necrosis, histology (FIG. 11) ([5]; MCT + 100 mg/kg, Part C): further reduction of periportal necrosis
sinusoidal cells with small, condensed nuclei (may represent apoptotic stellate cells) ([5]; groups receiving 50 mg/kg and 100 mg/kg): Moderate numbers
pEC50 (σ receptors): ~5.00
degree of periportal fibrosis ([6]; monocrotaline + 50 mg/kg): minimal to mild fibrosis
livers with periportal fibrosis ([6]; monocrotaline + 50 mg/kg, 4 out of 8 livers): 50%
degree of periportal fibrosis ([6]; monocrotaline + 100 mg/kg): negligible-very minimal (1 small triad) fibrosis
livers with periportal fibrosis ([6]; monocrotaline + 100 mg/kg, 1 out of 13 livers): 7%
pKi (dopamine D5 receptor): < 5.30
Caspase activity (fold-change relative to the untreated control) [7]: increased Caspase activity in a time-dependent fashion
pIC50 (dopamine D2 receptor): 6.17
differences in receptor affinities compared with all other 5-HT receptor subtypes [8]: more than 500 fold
pKi (dopamine D1 receptor): < 5.30
